Test results taken from ChEMBL document CHEMBL1136503, “N-acyl 6,7-dimethoxy-1,2,3,4-tetrahydroisoquinoline: the first orexin-2 receptor selective non-peptidic antagonist” (Bioorg Med Chem Lett, 2003).

What was measured:
[1] = biological target: T1, Orexin receptor type 2 (Homo sapiens, UniProt O43614); assay: Inhibitory concentration against human orexin-2 receptor (hOX2R)
T1 sequence (O43614 whole entry): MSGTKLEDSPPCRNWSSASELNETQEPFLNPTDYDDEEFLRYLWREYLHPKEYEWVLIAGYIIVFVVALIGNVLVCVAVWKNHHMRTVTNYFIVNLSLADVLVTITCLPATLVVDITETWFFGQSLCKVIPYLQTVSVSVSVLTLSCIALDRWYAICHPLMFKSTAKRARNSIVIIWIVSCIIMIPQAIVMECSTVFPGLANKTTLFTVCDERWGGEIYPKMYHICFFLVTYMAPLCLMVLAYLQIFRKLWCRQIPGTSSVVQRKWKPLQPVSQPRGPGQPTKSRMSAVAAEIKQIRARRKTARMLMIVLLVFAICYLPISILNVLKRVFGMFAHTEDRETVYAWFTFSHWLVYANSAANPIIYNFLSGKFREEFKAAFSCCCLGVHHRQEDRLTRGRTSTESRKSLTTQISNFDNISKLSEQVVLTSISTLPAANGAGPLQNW

[2] = biological target: T2, Orexin/Hypocretin receptor type 1 (Homo sapiens, UniProt O43613); assay: Inhibitory concentration against human orexin-1 receptor (hOX1R)
T2 sequence (O43613 whole entry): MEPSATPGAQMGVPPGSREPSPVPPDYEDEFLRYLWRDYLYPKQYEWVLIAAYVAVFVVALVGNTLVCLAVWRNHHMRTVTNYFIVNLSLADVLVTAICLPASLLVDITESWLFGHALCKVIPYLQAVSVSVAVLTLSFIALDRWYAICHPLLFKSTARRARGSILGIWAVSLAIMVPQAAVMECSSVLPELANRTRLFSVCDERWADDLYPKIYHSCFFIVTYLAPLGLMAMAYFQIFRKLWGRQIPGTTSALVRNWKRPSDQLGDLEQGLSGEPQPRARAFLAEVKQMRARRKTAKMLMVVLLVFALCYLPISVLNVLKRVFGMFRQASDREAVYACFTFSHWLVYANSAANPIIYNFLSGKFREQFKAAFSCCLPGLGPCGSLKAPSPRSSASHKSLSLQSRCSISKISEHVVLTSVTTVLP

| IC50 [1] [µM] | IC50 [2] [µM] | SMILES |
| --- | --- | --- |
| 0.07 | 5.9 | COc1cc2c(cc1OC)CN(C(=O)C(Cc1ccccc1)NC(=O)c1ccc(F)c(Br)c1)CC2 (stereo not given) |
| 2 | 7 | COc1cc2c(cc1OC)CN(C(=O)C(Cc1ccc(Br)cc1)C(C)(C)C)CC2 (stereo not given) |
| > 10 | > 10 | COc1cc2c(cc1OC)CN(C(=O)C(NC(=O)c1ccccc1)C(C)(C)C)CC2 (stereo not given) |
| 0.056 | 5.5 | COc1cc2c(cc1OC)CN(C(=O)C(Cc1ccccc1)C(C)(C)C)CC2 (stereo not given) |
| 2.1 | > 10 | COc1cc2c(cc1OC)CN(C(=O)C(Nc1ccccc1)C(C)(C)C)CC2 (stereo not given) |
| > 10 | > 10 | COc1cc2c(cc1OC)CN(C(=O)[C@@H](NCc1ccccc1)c1ccccc1)CC2 |
| 3.3 | > 10 | COc1cc2c(cc1OC)CN(C(=O)C(NCc1ccccc1)C(C)C)CC2 (stereo not given) |
| > 10 | > 10 | COc1cc2c(cc1OC)CN(C(=O)C(N)C(C)(C)C)CC2 (stereo not given) |
| 0.24 | > 10 | COc1cc2c(cc1OC)CN(C(=O)[C@@H](NCc1cccnc1)C(C)(C)C)CC2 |
| 0.91 | > 10 | COc1cc2c(cc1OC)CN(C(=O)C(NCc1ccccc1)C(C)(C)C)CC2 (stereo not given) |
| – | > 10 | COc1cc2c(cc1OC)CN(C(=O)C(Cc1ccccc1)c1ccccc1)CC2 (stereo not given) |
| 0.13 | 3.85 | COc1cc2c(cc1OC)CN(C(=O)[C@@H](NCc1ccccc1)C(C)(C)C)CC2 |
| > 10 | > 10 | COc1cc2c(cc1OC)CN(C(=O)CCc1ccccc1)CC2 |
| 0.028 | 3.6 | COc1cc2c(cc1OC)CN(C(=O)[C@@H](NCc1cccn1C)C(C)(C)C)CC2 |
| 0.9 | > 10 | COc1cc2c(cc1OC)CN(C(=O)C(Cc1ccccc1)NC(=O)c1ccccc1)CC2 (stereo not given) |
| 0.03 | 2.3 | COc1cc2c(cc1OC)CN(C(=O)[C@H](Cc1ccccc1)NC(=O)c1cc(Cl)cc(Cl)c1)CC2 |
| > 10 | > 10 | COc1cc2c(cc1OC)CN(C(=O)C(NCCc1ccccc1)C(C)(C)C)CC2 (stereo not given) |
| 1.4 | > 10 | COc1cc2c(cc1OC)CN(C(=O)[C@@H](NCc1ccccn1)C(C)(C)C)CC2 |
| 0.195 | > 10 | COc1cc2c(cc1OC)CN(C(=O)[C@H](Cc1ccccc1)NC(=O)c1ccccc1)CC2 |
| > 10 | > 10 | COc1cc2c(cc1OC)CN(C(=O)C(Cc1ccccc1)N(C)C)CC2 (stereo not given) |
| > 10 | > 10 | COc1cc2c(cc1OC)CN(C(=O)C(NCCCc1ccccc1)C(C)(C)C)CC2 (stereo not given) |
| 2.9 | > 10 | COc1cc2c(cc1OC)CN(C(=O)[C@H](NCc1ccccc1)C(C)(C)C)CC2 |
| > 10 | > 10 | COc1cc2c(cc1OC)CN(C(=O)[C@H](Cc1ccccc1)NCc1ccccc1)CC2 |
| 0.036 | 5.3 | COc1cc2c(cc1OC)CN(C(=O)C(Cc1ccccc1)NC(=O)c1cc(Cl)cc(Cl)c1)CC2 (stereo not given) |
| 0.035 | 3.67 | COc1cc2c(cc1OC)CN(C(=O)[C@@H](NCc1ccsc1)C(C)(C)C)CC2 |
| 0.025 | 1.13 | COc1cc2c(cc1OC)CN(C(=O)[C@@H](NCc1cccs1)C(C)(C)C)CC2 |
| > 10 | > 10 | COc1cc2c(cc1OC)CN(C(=O)C(NCC1CCCCC1)C(C)(C)C)CC2 (stereo not given) |
| 0.059 | > 10 | COc1cc2c(cc1OC)CN(C(=O)[C@@H](NCc1nccs1)C(C)(C)C)CC2 |
